Source: patent publication US20260078103A1, “ISOQUINOLONES AS PI3K INHIBITORS” (OnKure, Inc., priority 2022, published 2026)

tested on: T47D cells expressing mutant PI3Ka (H1047R); experiment: In vitro cell proliferation, T47D cells (CellTiter-Glo); type: cell-based; details: Homo sapiens, T47D, 72 h, inhibition of proliferation, read-out: Avg T-47D EC50
Method in brief: (§1)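 T47D cells in RPMI/10% FBS/insulin (0.2 units/mL) or SKBR3 in McCoys 5a/10% FBS, 1,500 cells/well, grown 72 h at 37 °C with 10-point compound dilutions. CellTiter-Glo luminescence; % inhibition normalised to 0.1% DMSO and 10 uM Alpelisib, EC50 from four-parameter curve fit.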

SMILES	EC50
Cc1cc([C@@H](C)Nc2ccccc2C(=O)O)c2cc(-c3cnc(CC(F)(F)F)nc3)n(C)c(=O)c2c1 [Example 348]	1 to 500 nM
CCOc1ncc(-c2cc3c([C@@H](C)Nc4ccccc4C(=O)O)cc(F)cc3c(=O)n2C)s1 [Example 349]	1 to 500 nM
CCON1CCN(c2cc3c([C@@H](C)Nc4cccc(F)c4C(=O)O)cc(C)cc3c(=O)n2C)CC1 [Example 350]	1 to 500 nM
Cc1cc([C@@H](C)Nc2cccc(F)c2C(=O)O)c2cc(-c3ccc(OC4CC4)nc3)n(C)c(=O)c2c1 [Example 351]	1 to 500 nM
Cc1cc([C@@H](C)Nc2cccc(F)c2C(=O)O)c2cc(N3CCN(c4ccc(C)nc4)CC3)n(C)c(=O)c2c1 [Example 352]	1 to 500 nM
Cc1ccc(N2CCN(c3cc4c([C@@H](C)Nc5ccccc5C(=O)O)cc(F)cc4c(=O)n3C)CC2)cn1 [Example 353]	1 to 500 nM
Cc1ccc(N2CCN(c3cc4c([C@@H](C)Nc5cccc(F)c5C(=O)O)cc(F)cc4c(=O)n3C)CC2)cn1 [Example 362]	1 to 500 nM
CCOc1ncc(-c2cc3c([C@@H](C)Nc4cccc(F)c4C(=O)O)cc(F)cc3c(=O)n2C)s1 [Example 363]	1 to 500 nM
Cc1cc([C@@H](C)Nc2ccccc2C(=O)O)c2cc(N3CCN(c4cnc(C)s4)CC3)n(C)c(=O)c2c1 [Example 364]	1 to 500 nM
Cc1cc([C@@H](C)Nc2ccccc2C(=O)O)c2cc(-c3cc(F)c4c(cnn4C)c3)n(C)c(=O)c2c1 [Example 366]	1 to 500 nM
Cc1cc([C@@H](C)Nc2ccccc2C(=O)O)c2cc(-c3cnc(CF)nc3)n(C)c(=O)c2c1 [Example 369]	1 to 500 nM

same assay, conditions: inhibition of proliferation, 72 hours, read-out: Avg T-47D EC50

SMILES	EC50
Cc1cc(C(C)Nc2cccc(C#N)c2C(=O)O)c2cc(N3CCN(CC(F)(F)F)CC3)n(C)c(=O)c2c1 (stereo not shown) [Example 354]	2000 to 15000 nM
Cc1cc([C@@H](C)Nc2ccccc2C(=O)O)c2cc(-c3cc(F)c4nn(C)cc4c3)n(C)c(=O)c2c1 [Example 365]	1 to 500 nM
Cc1cc([C@@H](C)Nc2ccccc2C(=O)O)c2cc(N3CCN(c4cnc(C)c(F)c4)CC3)n(C)c(=O)c2c1 [Example 367]	1 to 500 nM
Cc1cc([C@@H](C)Nc2cccc(F)c2C(=O)O)c2cc(-c3cnc(C(F)(F)F)nc3)n(C)c(=O)c2c1 [Example 371]	500 to 2000 nM
C[C@@H](Nc1cccc(F)c1C(=O)O)c1cc(F)cc2c(=O)n(C)c(-c3cnc(C(F)(F)F)nc3)cc12 [Example 372]	2000 to 15000 nM

tested on: SKBR3 cells express WT PI3Ka; experiment: In vitro cell proliferation, SKBR3 cells (CellTiter-Glo); type: cell-based; details: Homo sapiens, SK-BR-3, 72 h, inhibition of proliferation
Method in brief: as §1

SMILES	EC50
Cc1cc([C@@H](C)Nc2ccccc2C(=O)O)c2cc(-c3cnc(CC(F)(F)F)nc3)n(C)c(=O)c2c1 [Example 348]	> 15000 nM
CCOc1ncc(-c2cc3c([C@@H](C)Nc4ccccc4C(=O)O)cc(F)cc3c(=O)n2C)s1 [Example 349]	> 15000 nM
CCON1CCN(c2cc3c([C@@H](C)Nc4cccc(F)c4C(=O)O)cc(C)cc3c(=O)n2C)CC1 [Example 350]	> 15000 nM
Cc1cc([C@@H](C)Nc2cccc(F)c2C(=O)O)c2cc(-c3ccc(OC4CC4)nc3)n(C)c(=O)c2c1 [Example 351]	> 15000 nM
Cc1cc([C@@H](C)Nc2cccc(F)c2C(=O)O)c2cc(N3CCN(c4ccc(C)nc4)CC3)n(C)c(=O)c2c1 [Example 352]	2000 to 15000 nM
Cc1ccc(N2CCN(c3cc4c([C@@H](C)Nc5ccccc5C(=O)O)cc(F)cc4c(=O)n3C)CC2)cn1 [Example 353]	2000 to 15000 nM
Cc1ccc(N2CCN(c3cc4c([C@@H](C)Nc5cccc(F)c5C(=O)O)cc(F)cc4c(=O)n3C)CC2)cn1 [Example 362]	2000 to 15000 nM
CCOc1ncc(-c2cc3c([C@@H](C)Nc4cccc(F)c4C(=O)O)cc(F)cc3c(=O)n2C)s1 [Example 363]	> 15000 nM
Cc1cc([C@@H](C)Nc2ccccc2C(=O)O)c2cc(N3CCN(c4cnc(C)s4)CC3)n(C)c(=O)c2c1 [Example 364]	2000 to 15000 nM
Cc1cc([C@@H](C)Nc2ccccc2C(=O)O)c2cc(-c3cc(F)c4c(cnn4C)c3)n(C)c(=O)c2c1 [Example 366]	2000 to 15000 nM
Cc1cc([C@@H](C)Nc2ccccc2C(=O)O)c2cc(-c3cnc(CF)nc3)n(C)c(=O)c2c1 [Example 369]	> 15000 nM

same assay, conditions: inhibition of proliferation, 72 hours

SMILES	EC50
Cc1cc(C(C)Nc2cccc(C#N)c2C(=O)O)c2cc(N3CCN(CC(F)(F)F)CC3)n(C)c(=O)c2c1 (stereo not shown) [Example 354]	> 15000 nM
Cc1cc([C@@H](C)Nc2ccccc2C(=O)O)c2cc(-c3cc(F)c4nn(C)cc4c3)n(C)c(=O)c2c1 [Example 365]	> 15000 nM
Cc1cc([C@@H](C)Nc2ccccc2C(=O)O)c2cc(N3CCN(c4cnc(C)c(F)c4)CC3)n(C)c(=O)c2c1 [Example 367]	2000 to 15000 nM
Cc1cc([C@@H](C)Nc2cccc(F)c2C(=O)O)c2cc(-c3cnc(C(F)(F)F)nc3)n(C)c(=O)c2c1 [Example 371]	> 15000 nM
C[C@@H](Nc1cccc(F)c1C(=O)O)c1cc(F)cc2c(=O)n(C)c(-c3cnc(C(F)(F)F)nc3)cc12 [Example 372]	> 15000 nM

tested on: phosphorylation of AKT (pAKT) in T47D cells expressing mutant PI3Ka (H1047R); experiment: In vitro cell pAKT (Ser473) HTRF, T47D cells; type: cell-based; details: Homo sapiens, T47D, 6 h, cellular pAKT, T47D cells, mutant PI3Ka (H1047R), 6 hours; read-out: Avg T-47D IC50
Method in brief: (§2)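 Cells seeded on plates pre-stamped with 10-point compound dilutions, then grown 6 h at 37 °C (T47D in RPMI/10% FBS/insulin; SKBR3 in McCoy's 5a/10% FBS). Lysates read for pAKT Ser473 by HTRF after overnight antibody incubation. Inhibition normalised to 0.1% DMSO and 10 uM alpelisib; IC50 by four-parameter fit.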

SMILES	IC50
Cc1cc([C@@H](C)Nc2ccccc2C(=O)O)c2cc(-c3cnc(CC(F)(F)F)nc3)n(C)c(=O)c2c1 [Example 348]	1 to 500 nM
CCOc1ncc(-c2cc3c([C@@H](C)Nc4ccccc4C(=O)O)cc(F)cc3c(=O)n2C)s1 [Example 349]	1 to 500 nM
CCON1CCN(c2cc3c([C@@H](C)Nc4cccc(F)c4C(=O)O)cc(C)cc3c(=O)n2C)CC1 [Example 350]	1 to 500 nM
Cc1cc([C@@H](C)Nc2cccc(F)c2C(=O)O)c2cc(-c3ccc(OC4CC4)nc3)n(C)c(=O)c2c1 [Example 351]	1 to 500 nM
Cc1cc([C@@H](C)Nc2cccc(F)c2C(=O)O)c2cc(N3CCN(c4ccc(C)nc4)CC3)n(C)c(=O)c2c1 [Example 352]	1 to 500 nM
Cc1ccc(N2CCN(c3cc4c([C@@H](C)Nc5ccccc5C(=O)O)cc(F)cc4c(=O)n3C)CC2)cn1 [Example 353]	1 to 500 nM
Cc1ccc(N2CCN(c3cc4c([C@@H](C)Nc5cccc(F)c5C(=O)O)cc(F)cc4c(=O)n3C)CC2)cn1 [Example 362]	1 to 500 nM
CCOc1ncc(-c2cc3c([C@@H](C)Nc4cccc(F)c4C(=O)O)cc(F)cc3c(=O)n2C)s1 [Example 363]	1 to 500 nM
Cc1cc([C@@H](C)Nc2ccccc2C(=O)O)c2cc(N3CCN(c4cnc(C)s4)CC3)n(C)c(=O)c2c1 [Example 364]	1 to 500 nM
Cc1cc([C@@H](C)Nc2ccccc2C(=O)O)c2cc(-c3cc(F)c4c(cnn4C)c3)n(C)c(=O)c2c1 [Example 366]	1 to 500 nM
Cc1cc([C@@H](C)Nc2ccccc2C(=O)O)c2cc(-c3cnc(CF)nc3)n(C)c(=O)c2c1 [Example 369]	1 to 500 nM

same assay, conditions: cellular pAKT, T47D cells, mutant PI3Ka (H1047R), 6 hours; read-out: Avg T-47D IC50

SMILES	IC50
Cc1cc(C(C)Nc2cccc(C#N)c2C(=O)O)c2cc(N3CCN(CC(F)(F)F)CC3)n(C)c(=O)c2c1 (stereo not shown) [Example 354]	2000 to 15000 nM
Cc1cc([C@@H](C)Nc2ccccc2C(=O)O)c2cc(-c3cc(F)c4nn(C)cc4c3)n(C)c(=O)c2c1 [Example 365]	1 to 500 nM
Cc1cc([C@@H](C)Nc2ccccc2C(=O)O)c2cc(N3CCN(c4cnc(C)c(F)c4)CC3)n(C)c(=O)c2c1 [Example 367]	1 to 500 nM
Cc1cc([C@@H](C)Nc2cccc(F)c2C(=O)O)c2cc(-c3cnc(C(F)(F)F)nc3)n(C)c(=O)c2c1 [Example 371]	500 to 2000 nM
C[C@@H](Nc1cccc(F)c1C(=O)O)c1cc(F)cc2c(=O)n(C)c(-c3cnc(C(F)(F)F)nc3)cc12 [Example 372]	2000 to 15000 nM

tested on: phosphorylation of AKT (pAKT) in SKBR3 cells express WT PI3Ka; experiment: In vitro cell pAKT (Ser473) HTRF, SKBR3 cells; type: cell-based; details: Homo sapiens, SK-BR-3, 6 h, cellular pAKT
Method in brief: as §2

SMILES	IC50
Cc1cc([C@@H](C)Nc2ccccc2C(=O)O)c2cc(-c3cnc(CC(F)(F)F)nc3)n(C)c(=O)c2c1 [Example 348]	> 15000 nM
CCOc1ncc(-c2cc3c([C@@H](C)Nc4ccccc4C(=O)O)cc(F)cc3c(=O)n2C)s1 [Example 349]	> 15000 nM
CCON1CCN(c2cc3c([C@@H](C)Nc4cccc(F)c4C(=O)O)cc(C)cc3c(=O)n2C)CC1 [Example 350]	> 15000 nM
Cc1cc([C@@H](C)Nc2cccc(F)c2C(=O)O)c2cc(-c3ccc(OC4CC4)nc3)n(C)c(=O)c2c1 [Example 351]	> 15000 nM
Cc1cc([C@@H](C)Nc2cccc(F)c2C(=O)O)c2cc(N3CCN(c4ccc(C)nc4)CC3)n(C)c(=O)c2c1 [Example 352]	2000 to 15000 nM
Cc1ccc(N2CCN(c3cc4c([C@@H](C)Nc5ccccc5C(=O)O)cc(F)cc4c(=O)n3C)CC2)cn1 [Example 353]	500 to 2000 nM
Cc1ccc(N2CCN(c3cc4c([C@@H](C)Nc5cccc(F)c5C(=O)O)cc(F)cc4c(=O)n3C)CC2)cn1 [Example 362]	2000 to 15000 nM
CCOc1ncc(-c2cc3c([C@@H](C)Nc4cccc(F)c4C(=O)O)cc(F)cc3c(=O)n2C)s1 [Example 363]	> 15000 nM
Cc1cc([C@@H](C)Nc2ccccc2C(=O)O)c2cc(N3CCN(c4cnc(C)s4)CC3)n(C)c(=O)c2c1 [Example 364]	500 to 2000 nM
Cc1cc([C@@H](C)Nc2ccccc2C(=O)O)c2cc(-c3cc(F)c4c(cnn4C)c3)n(C)c(=O)c2c1 [Example 366]	2000 to 15000 nM
Cc1cc([C@@H](C)Nc2ccccc2C(=O)O)c2cc(-c3cnc(CF)nc3)n(C)c(=O)c2c1 [Example 369]	> 15000 nM

same assay, conditions: cellular pAKT, 6 hours

SMILES	IC50
Cc1cc(C(C)Nc2cccc(C#N)c2C(=O)O)c2cc(N3CCN(CC(F)(F)F)CC3)n(C)c(=O)c2c1 (stereo not shown) [Example 354]	> 15000 nM
Cc1cc([C@@H](C)Nc2ccccc2C(=O)O)c2cc(-c3cc(F)c4nn(C)cc4c3)n(C)c(=O)c2c1 [Example 365]	> 15000 nM
Cc1cc([C@@H](C)Nc2ccccc2C(=O)O)c2cc(N3CCN(c4cnc(C)c(F)c4)CC3)n(C)c(=O)c2c1 [Example 367]	2000 to 15000 nM
Cc1cc([C@@H](C)Nc2cccc(F)c2C(=O)O)c2cc(-c3cnc(C(F)(F)F)nc3)n(C)c(=O)c2c1 [Example 371]	> 15000 nM
C[C@@H](Nc1cccc(F)c1C(=O)O)c1cc(F)cc2c(=O)n(C)c(-c3cnc(C(F)(F)F)nc3)cc12 [Example 372]	> 15000 nM
